Data reported in ChEMBL document CHEMBL6103608, “Emerging RAS Inhibitors: Heterocyclic and Spirocyclic Compounds in Cancer Therapeutics” (ACS Med Chem Lett, 2025).

Experiment: Inhibition of NRAS G12D mutant (unknown origin) expressed in human THP-1 cells assessed as reduction in ERK phosphorylation incubated for 2 hrs by AlphaLISA SureFire Ultra assay
Type: cell-based
Settings: THP-1, 2 h

C[C@@H]1OC2=NC(c3cc(N)cc(F)c3OC(F)(F)F)=C(F)C3C(Cl)=C(CCN(C)C)N=C(C23)N2C[C@H]3CC[C@H](N3)[C@@H]12 (stereo partly specified)
IC50: 0.803 nM
